From PMC11882969 (Nature Communications, 2025)
“And” between values parts separate entries of the source, which are not always exact repeats. Equal values may be shown once.

Columns and labels:
[1] = biological target: panel of 320 non-olfactory GPCRs (Homo sapiens, UniProt P08173); type: cell-based
[2] = biological target: panel of 320 non-olfactory GPCRs (Homo sapiens, UniProt P25106); type: cell-based
[3] = biological target: panel of 320 non-olfactory GPCRs (Homo sapiens, UniProt P28223); type: cell-based
[4] = biological target: panel of 320 non-olfactory GPCRs (Homo sapiens, UniProt P29275); type: cell-based
panel of 320 non-olfactory GPCRs (Homo sapiens, UniProt P29275), sequence (P29275 whole entry): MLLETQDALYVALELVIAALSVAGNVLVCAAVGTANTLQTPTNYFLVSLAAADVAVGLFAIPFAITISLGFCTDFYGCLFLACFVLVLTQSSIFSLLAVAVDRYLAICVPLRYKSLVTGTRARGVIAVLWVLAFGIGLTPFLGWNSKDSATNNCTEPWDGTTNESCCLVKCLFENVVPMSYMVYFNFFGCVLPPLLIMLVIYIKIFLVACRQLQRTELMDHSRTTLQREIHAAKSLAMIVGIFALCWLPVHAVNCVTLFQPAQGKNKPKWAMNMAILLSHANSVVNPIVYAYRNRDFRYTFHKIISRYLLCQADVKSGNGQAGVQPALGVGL

[5] = biological target: panel of 320 non-olfactory GPCRs (Homo sapiens, UniProt P32245); type: cell-based
panel of 320 non-olfactory GPCRs (Homo sapiens, UniProt P32245), sequence (P32245 whole entry): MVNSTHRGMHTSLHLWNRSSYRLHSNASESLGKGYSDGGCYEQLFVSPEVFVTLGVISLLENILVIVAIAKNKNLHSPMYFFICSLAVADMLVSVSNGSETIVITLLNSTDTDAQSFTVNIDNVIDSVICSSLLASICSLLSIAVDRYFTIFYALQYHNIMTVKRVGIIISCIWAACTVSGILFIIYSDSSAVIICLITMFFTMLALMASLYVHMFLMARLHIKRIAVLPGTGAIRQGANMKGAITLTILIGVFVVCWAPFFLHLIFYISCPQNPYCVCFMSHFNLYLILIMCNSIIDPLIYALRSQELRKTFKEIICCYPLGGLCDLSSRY

[6] = biological target: panel of 320 non-olfactory GPCRs (Homo sapiens, UniProt P46089); type: cell-based
panel of 320 non-olfactory GPCRs (Homo sapiens, UniProt P46089), sequence (P46089 whole entry): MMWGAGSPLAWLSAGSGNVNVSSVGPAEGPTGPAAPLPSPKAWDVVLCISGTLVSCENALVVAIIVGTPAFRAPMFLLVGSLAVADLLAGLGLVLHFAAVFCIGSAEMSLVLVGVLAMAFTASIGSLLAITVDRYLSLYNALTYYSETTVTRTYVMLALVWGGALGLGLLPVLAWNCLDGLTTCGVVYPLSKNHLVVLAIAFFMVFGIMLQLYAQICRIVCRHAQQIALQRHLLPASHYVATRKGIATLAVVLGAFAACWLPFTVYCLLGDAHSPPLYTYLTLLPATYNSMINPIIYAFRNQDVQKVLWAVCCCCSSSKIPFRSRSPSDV

[7] = biological target: panel of 320 non-olfactory GPCRs (Homo sapiens, UniProt P51679); type: cell-based
panel of 320 non-olfactory GPCRs (Homo sapiens, UniProt P51679), sequence (P51679 whole entry): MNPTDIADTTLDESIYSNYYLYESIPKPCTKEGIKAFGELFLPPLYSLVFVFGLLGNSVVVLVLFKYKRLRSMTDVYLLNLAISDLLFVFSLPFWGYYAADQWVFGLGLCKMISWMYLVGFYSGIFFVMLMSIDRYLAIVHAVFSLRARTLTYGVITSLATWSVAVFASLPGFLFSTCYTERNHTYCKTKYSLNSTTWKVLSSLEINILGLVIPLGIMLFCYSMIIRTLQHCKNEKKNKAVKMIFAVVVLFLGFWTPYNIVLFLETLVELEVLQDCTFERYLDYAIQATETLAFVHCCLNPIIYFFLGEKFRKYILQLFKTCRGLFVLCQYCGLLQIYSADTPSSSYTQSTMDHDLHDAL

[8] = biological target: panel of 320 non-olfactory GPCRs (Homo sapiens, UniProt P51810); type: cell-based
panel of 320 non-olfactory GPCRs (Homo sapiens, UniProt P51810), sequence (P51810 whole entry): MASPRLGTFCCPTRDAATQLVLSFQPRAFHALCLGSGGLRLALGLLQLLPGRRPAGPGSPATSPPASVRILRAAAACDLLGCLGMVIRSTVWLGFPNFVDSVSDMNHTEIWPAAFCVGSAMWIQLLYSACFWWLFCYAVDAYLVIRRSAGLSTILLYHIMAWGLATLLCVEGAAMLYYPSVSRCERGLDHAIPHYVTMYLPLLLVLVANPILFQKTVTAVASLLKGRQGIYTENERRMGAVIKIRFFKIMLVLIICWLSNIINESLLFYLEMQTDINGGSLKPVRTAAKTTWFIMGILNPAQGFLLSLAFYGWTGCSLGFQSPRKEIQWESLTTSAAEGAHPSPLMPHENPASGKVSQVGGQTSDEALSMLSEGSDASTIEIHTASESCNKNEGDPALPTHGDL

[9] = biological target: panel of 320 non-olfactory GPCRs (Homo sapiens, UniProt Q96RI8); type: cell-based
panel of 320 non-olfactory GPCRs (Homo sapiens, UniProt Q96RI8), sequence (Q96RI8 whole entry): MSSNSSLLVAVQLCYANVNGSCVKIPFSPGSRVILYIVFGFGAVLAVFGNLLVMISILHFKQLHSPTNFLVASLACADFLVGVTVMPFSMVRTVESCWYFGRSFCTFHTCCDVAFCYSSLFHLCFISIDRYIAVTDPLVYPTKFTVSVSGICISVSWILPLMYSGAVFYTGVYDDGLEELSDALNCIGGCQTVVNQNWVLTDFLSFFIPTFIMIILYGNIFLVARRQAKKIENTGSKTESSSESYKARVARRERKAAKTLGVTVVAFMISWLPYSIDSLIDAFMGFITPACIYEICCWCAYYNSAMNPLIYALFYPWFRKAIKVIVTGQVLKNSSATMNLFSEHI

[10] = biological target: panel of 320 non-olfactory GPCRs (Homo sapiens, UniProt Q96RI9); type: cell-based
panel of 320 non-olfactory GPCRs (Homo sapiens, UniProt Q96RI9), sequence (Q96RI9 whole entry): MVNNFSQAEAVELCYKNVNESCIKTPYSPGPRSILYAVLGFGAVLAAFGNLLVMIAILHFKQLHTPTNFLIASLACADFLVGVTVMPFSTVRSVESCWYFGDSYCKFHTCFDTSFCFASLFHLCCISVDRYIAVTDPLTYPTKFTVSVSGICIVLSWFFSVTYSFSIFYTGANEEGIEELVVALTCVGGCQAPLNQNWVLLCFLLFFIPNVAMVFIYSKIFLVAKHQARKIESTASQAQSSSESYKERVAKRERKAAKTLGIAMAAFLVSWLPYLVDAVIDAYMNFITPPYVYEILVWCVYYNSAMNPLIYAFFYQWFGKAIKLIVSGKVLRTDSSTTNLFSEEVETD

[11] = biological target: panel of 320 non-olfactory GPCRs (Homo sapiens, UniProt Q9BY21); type: cell-based
panel of 320 non-olfactory GPCRs (Homo sapiens, UniProt Q9BY21), sequence (Q9BY21 whole entry): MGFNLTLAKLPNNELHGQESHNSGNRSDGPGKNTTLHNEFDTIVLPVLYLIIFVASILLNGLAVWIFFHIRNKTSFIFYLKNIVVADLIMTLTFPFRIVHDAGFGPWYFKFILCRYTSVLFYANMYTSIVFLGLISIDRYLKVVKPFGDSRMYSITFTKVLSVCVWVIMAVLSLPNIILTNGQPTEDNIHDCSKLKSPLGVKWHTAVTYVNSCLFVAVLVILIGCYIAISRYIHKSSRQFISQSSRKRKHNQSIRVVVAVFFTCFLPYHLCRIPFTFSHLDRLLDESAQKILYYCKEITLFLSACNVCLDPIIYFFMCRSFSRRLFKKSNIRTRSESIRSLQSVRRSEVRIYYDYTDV

[12] = biological target: panel of 320 non-olfactory GPCRs (Homo sapiens, UniProt Q9GZQ4); type: cell-based
panel of 320 non-olfactory GPCRs (Homo sapiens, UniProt Q9GZQ4), sequence (Q9GZQ4 whole entry): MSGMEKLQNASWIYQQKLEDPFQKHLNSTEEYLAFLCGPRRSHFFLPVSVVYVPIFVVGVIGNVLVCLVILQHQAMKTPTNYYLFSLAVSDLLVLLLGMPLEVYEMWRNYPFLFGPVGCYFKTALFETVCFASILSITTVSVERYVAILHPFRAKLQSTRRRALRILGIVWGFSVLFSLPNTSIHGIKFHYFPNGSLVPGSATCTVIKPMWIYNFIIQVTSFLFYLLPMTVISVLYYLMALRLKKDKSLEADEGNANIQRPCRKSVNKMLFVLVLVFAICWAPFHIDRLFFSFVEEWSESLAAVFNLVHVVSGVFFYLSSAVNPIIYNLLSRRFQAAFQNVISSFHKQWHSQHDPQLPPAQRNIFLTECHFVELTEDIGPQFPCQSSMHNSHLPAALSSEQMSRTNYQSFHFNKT

[13] = biological target: panel of 320 non-olfactory GPCRs (Homo sapiens, UniProt Q9P296); type: cell-based
panel of 320 non-olfactory GPCRs (Homo sapiens, UniProt Q9P296), sequence (Q9P296 whole entry): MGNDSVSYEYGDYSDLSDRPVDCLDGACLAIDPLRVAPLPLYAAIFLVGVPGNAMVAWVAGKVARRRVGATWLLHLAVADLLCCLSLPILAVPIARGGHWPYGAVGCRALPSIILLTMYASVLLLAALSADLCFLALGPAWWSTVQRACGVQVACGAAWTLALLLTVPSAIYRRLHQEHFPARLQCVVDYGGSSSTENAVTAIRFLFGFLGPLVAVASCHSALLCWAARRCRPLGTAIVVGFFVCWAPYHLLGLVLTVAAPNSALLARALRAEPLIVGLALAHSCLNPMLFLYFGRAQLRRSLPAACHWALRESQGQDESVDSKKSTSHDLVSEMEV

[14] = test system: mice; test: Acetone test, cold allodynia after spared nerve injury; type: in vivo, mouse; conditions: for effect on acetone-induced nocifensive behaviors: spared nerve injury
Method: Mice were placed on a wire mesh and thirty min after an i.p. injection of the compounds we applied a drop (50 μL) of acetone on the ventral aspect of the hindpaw, 5 times every 30 sec. We recorded the number of nocifensive behaviors (paw lifts/licks/shakes/bites) over the 5 applications.

[15] = biological target: hCB1 (Homo sapiens, UniProt P21554); test: Radioligand competition binding at hCB1; set-up: host or cells: HEK293SL cells, transient PEI transfection; conditions: for radioligand binding, competition curve point (normalized): log[drug]
hCB1, sequence (P21554 whole entry): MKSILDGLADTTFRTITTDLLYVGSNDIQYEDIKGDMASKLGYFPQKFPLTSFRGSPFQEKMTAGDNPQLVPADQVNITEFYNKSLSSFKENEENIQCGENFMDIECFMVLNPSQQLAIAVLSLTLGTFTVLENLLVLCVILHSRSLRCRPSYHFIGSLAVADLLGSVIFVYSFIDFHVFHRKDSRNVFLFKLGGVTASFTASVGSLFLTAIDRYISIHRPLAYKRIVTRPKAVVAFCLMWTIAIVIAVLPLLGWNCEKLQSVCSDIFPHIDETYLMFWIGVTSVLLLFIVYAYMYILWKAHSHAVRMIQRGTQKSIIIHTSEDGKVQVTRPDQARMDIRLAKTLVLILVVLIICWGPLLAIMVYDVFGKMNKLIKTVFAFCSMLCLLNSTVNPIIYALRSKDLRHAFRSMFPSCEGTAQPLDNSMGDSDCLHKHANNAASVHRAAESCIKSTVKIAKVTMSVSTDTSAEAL

panel of 320 non-olfactory GPCRs (Homo sapiens, UniProt P08173), sequence (P08173 whole entry): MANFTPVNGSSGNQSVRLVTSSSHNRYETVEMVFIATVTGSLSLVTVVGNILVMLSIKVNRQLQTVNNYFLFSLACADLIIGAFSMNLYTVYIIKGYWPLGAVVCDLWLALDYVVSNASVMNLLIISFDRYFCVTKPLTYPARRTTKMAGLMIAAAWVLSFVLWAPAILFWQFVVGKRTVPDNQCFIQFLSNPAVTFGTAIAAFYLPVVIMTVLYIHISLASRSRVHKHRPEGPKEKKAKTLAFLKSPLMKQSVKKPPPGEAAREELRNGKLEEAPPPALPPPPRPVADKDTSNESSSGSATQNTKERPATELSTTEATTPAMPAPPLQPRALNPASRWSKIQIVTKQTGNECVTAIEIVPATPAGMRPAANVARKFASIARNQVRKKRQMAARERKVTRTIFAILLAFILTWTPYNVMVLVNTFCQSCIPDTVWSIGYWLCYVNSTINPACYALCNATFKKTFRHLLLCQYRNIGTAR
panel of 320 non-olfactory GPCRs (Homo sapiens, UniProt P25106), sequence (P25106 whole entry): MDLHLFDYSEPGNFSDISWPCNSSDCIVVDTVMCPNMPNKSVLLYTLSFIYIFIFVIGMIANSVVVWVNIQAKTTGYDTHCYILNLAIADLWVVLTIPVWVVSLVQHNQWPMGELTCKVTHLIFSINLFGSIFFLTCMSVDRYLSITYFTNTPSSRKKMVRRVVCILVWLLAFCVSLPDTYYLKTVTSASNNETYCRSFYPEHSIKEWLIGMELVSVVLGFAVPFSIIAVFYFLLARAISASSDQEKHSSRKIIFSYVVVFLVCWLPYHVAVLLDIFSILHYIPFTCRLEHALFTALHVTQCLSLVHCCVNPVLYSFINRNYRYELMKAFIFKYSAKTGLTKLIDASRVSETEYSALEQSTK

Structure (SMILES) | Fold of Basal RLU [1] | Fold of Basal RLU [2] | Fold of Basal RLU [3] | Fold of Basal RLU [4] | Fold of Basal RLU [5] | Fold of Basal RLU [6] | Fold of Basal RLU [7] | Fold of Basal RLU [8] | Fold of Basal RLU [9] | Fold of Basal RLU [10] | Fold of Basal RLU [11] | Fold of Basal RLU [12] | Fold of Basal RLU [13] | acetone test response after spared nerve injury (Figure5b), individual animals ([14]; Dose 0.2 mg/kg) | effect on acetone-induced nocifensive behaviors ([14]; i.p.) | Ki [15] | further results
COC(=O)[C@@](C)(NC(=O)c1cc(C)n(-c2cccc(C(F)(F)F)c2)n1)c1cccs1 [‘1350] | 1 and 1.1 and 0.6 and 0.8 | 1.1 fold and 1 fold and 1.6 fold and 2 fold | 0.9 fold and 0.8 fold | 0.6 and 0.7 and 1.1 | 1 fold and 1.4 fold and 0.8 fold | 1 fold and 1.1 fold and 1.4 fold and 1.3 fold | 1.1 and 1 and 0.9 | 1.2 and 0.9 and 0.8 and 1 | 0.9 fold and 1.2 fold and 1.1 fold and 0.8 fold | 1.2 and 1.1 and 1.5 | 1 fold and 0.9 fold and 1.1 fold | 0.7 fold and 0.9 fold and 0.8 fold | 0.9 fold and 0.8 fold and 1.3 fold and 1.5 fold | 26 and 54 and 32 | strongly reduced spared nerve injury-induced cold allodynia | 0.32 nM | acetone test response after spared nerve injury (Figure5b), individual animals ([14]; Dose 0.05 mg/kg): 48 and 66 and 108 and 56 and 46; acetone test response after spared nerve injury (Figure5b), individual animals ([14]; Dose 0.1 mg/kg): 38 and 48 and 28 and 64 and 18; lowest dose with significant anti-allodynia, acetone test ([14]; i.p.): 0.05 mg/kg; radioligand binding, competition curve point (normalized) ([15]; M = -6.64345, replicate columns): 11.7845 and 1.336; radioligand binding, competition curve point (normalized) ([15]; M = -7.35666, replicate columns): 11.2233 and 0.827; radioligand binding, competition curve point (normalized) ([15]; M = -8.06987, replicate columns): 12.4018 and 13.4224; radioligand binding, competition curve point (normalized) ([15]; M = -8.78308, replicate columns): 40.0112 and 26.5903; radioligand binding, competition curve point (normalized) ([15]; M = -9.49629, replicate columns): 69.0236 and 54.2939; radioligand binding, competition curve point (normalized) ([15]; M = -10.2095, replicate columns): 97.7273 and 72.2328; radioligand binding, competition curve point (normalized) ([15]; M = -11.9245, replicate columns): 99.9439 and 88.4224; radioligand binding, competition curve point (normalized) ([15]; M = -13.6383, replicate columns): 102.525 and 91.0941
Cc1cc(C(=O)NC(C)(c2ccco2)c2ccco2)nn1-c1cccc(C(F)(F)F)c1 [‘4936] | 0.7 and 1.1 and 1 and 0.6 | 3.3 fold and 2.7 fold and 2.1 fold and 4 fold | 1.2 fold and 1 fold and 1.4 fold | 0.9 and 0.7 and 1 and 0.6 | 1.9 fold and 1.8 fold and 1.7 fold and 1.6 fold | 1 fold and 1.1 fold and 1.4 fold | 0.6 and 0.5 | 1 and 0.7 and 1.1 | 0.8 fold and 1.3 fold and 0.7 fold | 0.8 and 1.3 and 1.4 | 1 fold and 1.2 fold and 1.1 fold and 1.3 fold | 0.9 fold and 0.8 fold and 0.7 fold | 0.9 fold and 1 fold and 1.1 fold | 92 and 82 and 36 and 30 and 65 | strongly reduced spared nerve injury-induced cold allodynia | 3.98 nM | radioligand binding, competition curve point (normalized) ([15]; M = -5.643, replicate columns): -14.5136 and 0.4673; radioligand binding, competition curve point (normalized) ([15]; M = -6.357, replicate columns): -3.19 and 6.075; radioligand binding, competition curve point (normalized) ([15]; M = -7.07, replicate columns): 20.4147 and 9.813; radioligand binding, competition curve point (normalized) ([15]; M = -7.783, replicate columns): 36.2041 and 27.8816; radioligand binding, competition curve point (normalized) ([15]; M = -8.496, replicate columns): 40.1914 and 64.2523; radioligand binding, competition curve point (normalized) ([15]; M = -9.21, replicate columns): 71.0526 and 82.243; radioligand binding, competition curve point (normalized) ([15]; M = -9.923, replicate columns): 77.9904 and 73.053; radioligand binding, competition curve point (normalized) ([15]; M = -10.636, replicate columns): 83.8915 and 104.439
